Key:
[1] = tested on: lipid peroxidation activity of each tissue homogenate (brain, heart and kidney); assay: Tissue migration properties: ex vivo lipid peroxidation inhibition in brain, heart and kidney homogenates; details: SD male rats, 100 mg/kg intraperitoneally, 30 minutes after administration; for Ex vivo lipid peroxidation inhibition inhibition ratio (%) Brain: brain homogenate; for Ex vivo lipid peroxidation inhibition inhibition ratio (%) Heart: heart homogenate; for Ex vivo lipid peroxidation inhibition inhibition ratio (%) Kidney: kidney homogenate
Method: (§1) An in vitro lipid peroxidation inhibition of the compounds of the present invention was evaluated by measuring a lipid peroxidation activity in a rat brain homogenate according to a process of Malvy, c., et al., Biochemical and Biophysical Research Communications, 1980, Vol. 95, p. 734-737. That is, a rat brain was extracted and a 5-fold amount of an aqueous phosphoric acid buffered saline solution (pH 7.4) (hereinafter abbreviated to PBS) was added to the brain under ice cooling, followed by homogenization using a Teflon homogenizer and further centrifugation at 10,000 g for 20 minutes to prepare a brain homogenate as a supernatant. To the brain homogenate thus prepared, 500 μM cysteine, 5 μM sulfuric acid monobasic iron and 100 mM KCl were added, followed by incubation at 37° C. for 30 minutes. Malondialdehyde produced by the […] of lipid peroxidation was measured by a thiobarbituric acid process.
Tissue migration properties of the compounds of the present invention were evaluated by measuring an ex vivo lipid peroxidation inhibition. A solution or suspension prepared by dissolving or suspending each of test compounds in an aqueous physiological saline solution or a 1% poly oxy ethylene hydrogenated castor oil (NIKKOL HCO-60, manufactured by Nikko Chemicals Co., Ltd.) physiological saline solution was intraperitoneally administered to SD male rats (one group: 3 rats, 6 weeks old) (available from Nippon SLC Co., Ltd.) at a dose of 100 mg/kg. 30 Minutes after administration, rats were bled to death by cutting the carotid artery and then the brain, heart and kidney were extracted. A lipid peroxidation activity of each tissue homogenate was measured by the process described in Example 18. An inhibition ratio in each tissue of the compounds of the present invention was determined from the amount of lipid peroxidation produced of a control group (physiological saline administration group) and a test compound administration group.

[2] = tested on: lipid peroxidation activity in a rat brain homogenate; assay: In vitro lipid peroxidation inhibition (rat brain homogenate, thiobarbituric acid process); format: biochemical; details: read-out: In vitro lipid peroxidation inhibition 50% inhibitory concentration (IC50 μM), 500 μM cysteine, 5 μM sulfuric acid monobasic iron, 100 mM KCl, 37° C. for 30 minutes
Method: as §1

[3] = tested on: abnormal behavior and fatality due to ferrous chloride; assay: In vivo antioxidative activity: ferrous chloride administration into spinal subarachnoid cavity of mice; set-up: species or system Slc:ICR male mice; details: score after 60 minutes; for In vivo antioxidation action 50% inhibitory concentration (ID50), Intraperitoneal administration: intraperitoneal administration 30 minutes before ferrous chloride into spinal canal; for In vivo antioxidation action 50% inhibitory concentration (ID50), Oral administration: oral administration 30 minutes before ferrous chloride into spinal canal
Method: An in vivo antioxidative activity of the compounds of the present invention was evaluated from an abnormal behavior due to administration of ferrous chloride into spinal subarachnoid cavity of mice as well as an inhibitory effect of a fatality rate according to the process described in J. Med. Chem., 1997, Vol. 40, p. 559-573. Using Slc:ICR male mice (one group: 3 to 7 mice, 5 weeks old) (available from Nippon SLC Co., Ltd.), 5 μl of a 50 mM ferrous chloride physiological saline solution was administered to the spinal canal through the space between the fifth lumbar vertebrae and the sixth lumbar vertebrae. 20 to 60 minutes after administration of ferrous chloride, symptoms were observed and a score after 60 minutes was determined from symptoms shown in Table 32. […] As is apparent from the results, the compounds of the present invention have an in vivo antioxidation action.

[4] = target: T1, 15-LO obtained from reticulocyte of rabbit (Oryctolagus cuniculus, UniProt P12530); assay: 15-lipoxygenase (15-LO) inhibitory activity, 15-HETE production; format: biochemical; details: 15-LO from reticulocyte of rabbit, linoleic acid
T1 construct: 15-LO obtained from reticulocyte of rabbit; from tissue; host or cells: rabbit reticulocytes
T1 sequence (P12530 1-663): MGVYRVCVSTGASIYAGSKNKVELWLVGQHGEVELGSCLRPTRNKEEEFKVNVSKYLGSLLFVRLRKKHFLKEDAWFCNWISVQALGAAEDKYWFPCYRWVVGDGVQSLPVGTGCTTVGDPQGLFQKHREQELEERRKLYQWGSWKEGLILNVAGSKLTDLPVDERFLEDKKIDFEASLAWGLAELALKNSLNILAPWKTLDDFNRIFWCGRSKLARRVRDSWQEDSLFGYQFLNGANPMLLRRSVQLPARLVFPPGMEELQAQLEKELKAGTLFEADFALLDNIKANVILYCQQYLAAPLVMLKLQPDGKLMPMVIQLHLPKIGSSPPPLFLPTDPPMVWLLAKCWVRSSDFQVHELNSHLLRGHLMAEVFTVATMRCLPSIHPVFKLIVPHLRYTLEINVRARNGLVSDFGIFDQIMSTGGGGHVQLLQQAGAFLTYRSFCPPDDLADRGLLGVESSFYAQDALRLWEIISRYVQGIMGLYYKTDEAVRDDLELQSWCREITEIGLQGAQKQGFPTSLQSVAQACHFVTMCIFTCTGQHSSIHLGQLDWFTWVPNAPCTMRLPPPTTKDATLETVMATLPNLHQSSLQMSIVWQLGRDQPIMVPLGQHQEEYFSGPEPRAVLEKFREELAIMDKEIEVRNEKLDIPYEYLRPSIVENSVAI
Method: A 15-LO inhibitory activity was measured by a partially modified process of a process of Auerbach et al. (Auerbach B. J, et al., Anal. Biochem.: 201, 375-80, 1992). That is, 15-LO obtained from reticulocyte of rabbit and each of test compounds dissolved in DMSO (final concentration: 1%) were preincubated (4° C., 15 minutes) in phosphoric acid buffer (pH 7.4) and 256 μM linoleic acid was further added, followed by incubation (4° C., 10 minutes). The amount of 15-HETE produced as a result of incubation was determined by spectrophotometry (OD660nm) and 50% production inhibitory concentration (μM) against 15-LO of each test compound was calculated. Compounds (R-3) and (R-4) (edaravone) of the following formulas were used as a control drug.

[5] = target: T2, 5-lipoxygenase (5-LO) (Homo sapiens, UniProt P09917); assay: 5-lipoxygenase (5-LO) inhibitory activity, leukotriene B4 production in human peripheral blood mononuclear cells; format: cell-based; details: for 5-LO, percentage given after >10: bracketed value beside IC50 >10 μM, not explained, presumably inhibition at 10 μM; for IC50: human peripheral blood mononuclear cells, A23187, leukotriene B4 production
T2 construct: human peripheral blood mononuclear cells and each of test compounds dissolved in DMSO (final concentration: 1%) were preincubated; endogenous in cells; host or cells: human peripheral blood mononuclear cells
T2 sequence (P09917 1-674): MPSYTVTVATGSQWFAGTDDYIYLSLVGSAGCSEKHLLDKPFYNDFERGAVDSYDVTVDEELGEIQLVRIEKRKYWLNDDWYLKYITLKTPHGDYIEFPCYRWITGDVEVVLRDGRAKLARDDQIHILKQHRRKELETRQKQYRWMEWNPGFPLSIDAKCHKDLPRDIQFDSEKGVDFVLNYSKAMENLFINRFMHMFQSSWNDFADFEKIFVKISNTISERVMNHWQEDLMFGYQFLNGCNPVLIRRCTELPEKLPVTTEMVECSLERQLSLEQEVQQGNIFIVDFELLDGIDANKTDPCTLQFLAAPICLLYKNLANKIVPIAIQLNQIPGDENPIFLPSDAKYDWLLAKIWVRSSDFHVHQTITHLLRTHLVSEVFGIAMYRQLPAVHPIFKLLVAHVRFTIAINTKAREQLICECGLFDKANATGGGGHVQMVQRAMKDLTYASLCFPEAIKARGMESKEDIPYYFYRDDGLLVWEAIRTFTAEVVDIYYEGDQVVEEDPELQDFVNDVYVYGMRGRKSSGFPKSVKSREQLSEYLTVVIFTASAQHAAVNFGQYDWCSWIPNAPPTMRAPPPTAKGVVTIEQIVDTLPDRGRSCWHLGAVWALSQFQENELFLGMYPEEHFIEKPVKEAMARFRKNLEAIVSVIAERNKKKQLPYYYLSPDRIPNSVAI
Method: A 5-LO inhibitory activity was measured by a partially modified process of a process of Carter et al. (Carter G. W, et al, J. Pharmacol. Exp. Ther.: 256, 929-37, 1991). That is, human peripheral blood mononuclear cells and each of test compounds dissolved in DMSO (final concentration: 1%) were preincubated (37° C., 15 minutes) in a Hanks' balanced salt solution and 30 μM A23187 was further added, followed by incubation (37° C., 30 minutes). The amount of leukotriene B4 produced as a result of incubation was determined by enzyme immunoassay and a 50% production inhibitory concentration (μM) against 5-LO of each test compound was calculated.

[6] = Acute oral toxicity, single oral dose, mortality rate after 7 days; details: mouse, in vivo, male mice, observed for 7 days
Method: A single dose of each of the compounds of the present invention was orally administered to male mice. After observing for 7 days, a mortality rate was determined.

[7] = tested on: lipid peroxidation in retina homogenate; assay: Retina migration properties: ex vivo retinal lipid peroxidation production inhibition; format: in vivo; details: SD male rats, retina taken after 30 minutes
Method: Retina migration properties of the compounds of the present invention were evaluated. To SD male rats (one group: 3 rats, 6 weeks old), a solution or suspension prepared by dissolving or suspending each of the test compounds in a 0.1N hydrochloric acid solution or a 1% poly oxy ethylene hydrogenated castor oil (NIKKOL HCO-60) solution was orally administered. After 30 minutes, both eyes were extracted and the retina was separated under ice cooling. A 5% homogenate solution of the retina was prepared in a 0.1M tris-hydrochloric acid buffer (pH 7.4) under ice cooling using a polytron homogenizer for a trace amount (NS-310E: manufactured by Nichion Irika Kiki Co., Ltd.) and, after autoxidation at 37° C. for one hour, the amount of lipid peroxidation produced was determined by a thiobarbituric acid process (MASUGI et al., vitamin 51, 21-29, 1977). A 30% inhibitory dose (ID30) was determined from the inhibition ratio at each dose. As is apparent from the results, the compounds of the present invention have an ex vivo retinal lipid peroxidation production inhibitory action and is also excellent in retina migration properties.

Row | Structure (SMILES) | Ex vivo lipid peroxidation inhibition inhibition ratio (%) Brain [1] [%] | Ex vivo lipid peroxidation inhibition inhibition ratio (%) Heart [1] [%] | Ex vivo lipid peroxidation inhibition inhibition ratio (%) Kidney [1] [%] | IC50 [2] [µM] | In vivo antioxidation action 50% inhibitory concentration (ID50), Intraperitoneal administration [3] [mg/kg] | In vivo antioxidation action 50% inhibitory concentration (ID50), Oral administration [3] [mg/kg] | IC50 [4] [nM] | 5-LO, percentage given after >10 [5] [%] | IC50 [5] [nM] | LD50 at 7 days [6] [mg/kg] | Lipid peroxidation inhibition 30% inhibitory concentration (ID30, oral administration) in ex vivo retina [7] [mg/kg] | melting point [°C]
1 | Cc1c(C)c2c(c(C)c1O)CCC(C)(C(=O)Nc1ccc(-n3ccnc3)cc1)O2 (stereo not drawn) [Compound R-2, reference compound] | 45 | 57 | 84 | 0.23 | 20 | 53 |  |  |  |  |  | 
2 | Cc1c(C)c2c(c(C)c1N)CC(C)(CN1CCC(c3ccccc3)CC1)O2 (stereo not drawn) [Compound R-3, reference compound] |  |  |  |  |  |  | 3260 | 34 | > 10000 | < 300 |  | 
3 | Cc1c(C)c2c(c(C)c1N)CC(C)(CNc1ccc(-c3ccn[nH]3)cc1)O2 (racemic) [Compound B-2-5-1, 4-(±)-(5-amino-2,4,6,7-tetramethyldihydrobenzofuran-2-ylmethylamino)-phenyl-5-1H-pyrazole] | 96 | 88 | 88 | 0.42 | 16 | 17 | 1400 |  | 160 | > 2000 |  | 
4 | Cc1c(C)c2c(c(C)c1N)CC(C)(CN1CCN(c3ccc(-n4ccnc4)cc3)CC1)O2 (racemic) [Compound B-1-2, 4-(±)-(5-amino-2,4,6,7-tetramethyldihydrobenzofuran-2-ylmethyl)-1-(4-imidazol-1-ylphenyl)piperazine] | 79 | 93 | 89 |  | 27 | 13 |  |  |  |  | 5.7 | 
5 | Cc1c(C)c2c(c(C)c1O)CC(C)(C(=O)Nc1ccc(-n3ccnc3)cc1)O2 (stereo not drawn) [Compound R-1, reference compound] | 68 | 59 | 75 | 0.23 | >30 | >30 |  |  |  |  |  | 
6 | Cc1c(C)c2c(c(C)c1N)CC(C)(C(=O)N1CCN(c3ccc(-n4ccnc4)cc3)CC1)O2 (racemic) [Compound B-1-1, (±)-(5-amino-2,4,6,7-tetramethyldihydrobenzofuran-2-yl)-[4-(4-imidazol-1-ylphenyl)-piperazin-1-yl]carboxamide] | 96 | 88 | 95 |  | 4.4 | 19 |  |  |  |  |  | 
7 | Cc1c(C)c2c(c(C)c1N)CC(C)(CN1CCN(c3ccc(-c4ccn[nH]4)cc3)CC1)O2 (stereo not drawn) [Compound B-1-34] |  |  |  |  |  |  | 5560 |  | 162 |  |  | 205 to 207
8 | CC1=NN(c2ccccc2)C(=O)C1 [Compound R-4, edaravone] |  |  |  |  |  |  | 5570 | 32 | > 10000 |  |  | 

From patent US7553837B2, “Phenylazole compounds production process and antioxidants” (Nippon Soda Co., Ltd., priority 2003, dated 2009)
